Measured values: patent US11617748B2, “Meclozine derivatives and diclazuril derivatives for use in the prevention and/or the treatment of disorders associated to the inflammation induced by P. acnes” (priority 2016, dated 2023)

Columns and labels:
PKC = experiment: Western blot of p-PKC/PKC in P. acnes-stimulated HaCaT cells; assay type: cell-based, human; settings: 25 μM, 24 h pre-treatment
Description: (§1) Western Blot analysis. Whole cell protein extracts (25 μg) were separated by electrophoresis (LDS-PAGE) under denaturing conditions with NuPAGE Novex 4-12% Bis-Tris gel (1 mm, 12 wells, Invitrogen, UK) and proteins were transferred onto nitrocellulose membranes and saturated in 20 ml of saturation buffer consisting of TBS 1× (Tris Buffered Saline) containing 200 mM Tris, 1.4 M NaCl (pH 7.6), 5% no fat milk, 0.1% Tween 20 for 1 h. […] After washing to remove unbound antibodies, bound primary antibodies were detected by incubation for 1 h using secondary antibody against rabbit- and mouse IgG (Santa Cruz Biotechnology, SC-2357, 1:5000 and SC-2005, 1:5000, respectively). Unbound material was removed by washing and peroxidase activity was detected in a chemiluminescence assay (WesternBright ECL, Advansta, Menlo Park, USA). […]

Akt = experiment: Western blot of p-Akt/Akt in P. acnes-stimulated HaCaT cells; assay type: cell-based, human; settings: 25 μM, 24 h pre-treatment
Description: as §1

JNK = experiment: Western blot of p-JNK/JNK in P. acnes-stimulated HaCaT cells; assay type: cell-based, human; settings: 25 μM, 24 h pre-treatment
Description: as §1

mTOR = experiment: Western blot of p-mTOR/mTOR in P. acnes-stimulated HaCaT cells; assay type: cell-based, human; settings: 25 μM, 24 h pre-treatment
Description: as §1

ICAM-1 = experiment: Western blot of ICAM-1 expression in P. acnes-stimulated HaCaT cells; assay type: cell-based, human; settings: 25 μM, 24 h pre-treatment
Description: as §1

PPARβ = experiment: Western blot of PPARβ expression in P. acnes-stimulated HaCaT cells; assay type: cell-based, human; settings: 25 μM, 24 h pre-treatment
Description: as §1

IL-1β production = experiment: PGN- and LTA-induced IL-1β production in ThP-1 monocytes (ELISA); assay type: cell-based, human; settings: ThP-1, 6.25 μM, 24 h pre-treatment, PGN or LTA 5-20 μg/ml
Description: (§2) ELISA. Human IL-1β, IL-8, hBD-2 and TNF-α protein concentration were measured in the supernatants of stimulated cells using various ELISA Sets (all from Ready-Set-Go from eBioscience, except hBD-2 measurements: Human DEFB4A/BD-2 ELISA Kit from LSBio) according to the manufacturer's instructions. We used serial dilutions of recombinant human IL-1β, IL-8, hBD-2 and TNF-α for standard curve. The optical density was determined at 450 nm at a wavelength correction of 540 nm.

[1] = tested on: P. acnes-induced ear inflammation; experiment: In vivo model of P. acnes-induced inflammation in mouse ears; settings: mice; for decrease of the ear inflammation: topical, each day for 3 days, score over 96 h
Description: This model is based on the capacity of mouse ears to react while P. acnes is intradermally injected. The inflammatory reaction is evaluated each day over a period of 4 days after P. acnes injection by measuring the thickness of the ears, the redness as well as the presence of a desquamation and/or small pustules. At the end of the experiment, final measurement of inflammation was realized and photographic pictures of ears were taken. Then, mice were euthanized and ears were immediately fixed in a formalin-containing buffer for a future histological analysis. The experimental design consisted of 3 groups containing 10 mice each. 1) PBS corresponds to the non-treated group injected with PBS. 2) PA+Vehicle TOPIC corresponds to P. acnes injected in ears treated with Vaseline alone. 3) PA+diclazuril corresponds to P. acnes injected in ears treated with 1.3% diclazuril mixed with Vaseline. The preparation of the 1.3% diclazuril gel consisted of extemporaneously gently mixing 6.5 mg of diclazuril with […] for 1 min at room temperature (21° C.) and then directly applied to the mouse ears. This model is based on the capacity of mouse ears to react while P. acnes is intradermally injected. The inflammatory reaction is evaluated each day over a period of 4 days after P. acnes injection by measuring the thickness of the ears, the redness as well as the presence of a desquamation and/or small pustules. At the end of the experiment, final measurement of inflammation was realized and photographic pictures of ears were taken. Then, mice were euthanized and ears were immediately fixed in a formalin-containing buffer for a future histological analysis.

hBD-2 production = hBD-2 production by M5-stimulated NHDK, in vitro psoriasis-like model (ELISA); assay type: cell-based, human; settings: NHDK + M5, 48 h
Description: Cell culture, pretreatment and stimulation.
as §2

IL-8 production = experiment: P. acnes-induced IL-8 production in HaCaT keratinocytes (ELISA); assay type: cell-based, human; settings: HaCaT cells pre-treated 24 h, no P. acnes stimulation
[2] = 1% meclozine gel topical, vs PA+Vehicle

Row | Structure (SMILES) | phosphorylation of PKC induced by P. acnes (PKC) | phosphorylation of Akt induced by P. acnes (Akt) | phosphorylation of JNK induced by P. acnes (JNK) | phosphorylation of mTOR induced by P. acnes (mTOR) | P. acnes-induced ICAM-1 expression (ICAM-1) | expression of PPARβ (PPARβ) | decrease of IL-1β production (average) (IL-1β production) [%] | decrease of the ear inflammation ([1]; 1% meclozine gel (Vaseline, DMSO, Solutol/water)) [%] | ear thickness (histological analysis) [1, 2] | leukocyte infiltration (histological analysis) [1, 2] | effect on hBD-2 production, in words (hBD-2 production; 0.39 to 12.5 μM) | IL-8 production in pretreated cells without being stimulated (IL-8 production) | decrease of the ear inflammation ([1]; 1.3% diclazuril in Vaseline) [%] | decrease of hBD-2 production (hBD-2 production; at 12.5 μM) [%]
1 | Cc1cccc(CN2CCN(C(c3ccccc3)c3ccc(Cl)cc3)CC2)c1 (stereo not shown) [meclozine, Meclozine] | prevented the phosphorylation | prevented the phosphorylation | did not cause any changed | did not cause any changed | decreased its expression | strongly decrease | 36 | 29.5 | decrease | decrease | no effect | no change | – | –
2 | N#CC(c1ccc(Cl)cc1)c1c(Cl)cc(-n2ncc(=O)[nH]c2=O)cc1Cl (stereo not shown) [diclazuril, Diclazuril] | prevented the phosphorylation | prevented the phosphorylation | did not cause any changed | did not cause any changed | no effect | no change | 64 | – | – | – | – | no change | 37 | 68
